Key:
[1] = Tissue distribution in rat; assay type: in vivo; settings: previous study
NSCLC = assay: Phase 1 clinical study: efficacy (tumor overall response); assay type: in vivo, human; settings: end of treatment
Experimental: (§1) A first-in-human phase 1 study was performed to determine the MTD and to evaluate PK, safety/tolerability and efficacy profiles of exemplary Compound 1 in NSCLC patients who are refractory to conventional treatment modalities. This open-label, non-randomized, dose-escalation study, which completed in February 2013, enrolled a total of 13 patients; seven males and six females, all of whom were Asian. A total of five patients were enrolled an accelerated titration phase (one patient each in the 50, 100, 200, 300, and 450 mg dose groups) and eight patients were enrolled in a standard titration phase (three patients in the 450 mg dose group and five patients in the 600 mg dose group).
The PPS was defined in the Phase 1 study as all patients who completed at least three cycles of treatment with proper imaging assessment (RECIST v.1.1).

[2] = Preclinical pharmacokinetic studies; assay type: in vivo; settings: preclinical PK studies
[3] = tested on: stage IV (including pleural effusion) non-squamous NSCLC; assay: Phase II study in stage IV non-squamous NSCLC patients; assay type: in vivo, human
From the text: This is a single-arm, open-label, Phase II study in KRAS-positive and KRAS-negative patients with stage IV (including pleural effusion) non-squamous NSCLC who have failed two lines of anti-cancer therapy. This is defined as patients with radiologically confirmed disease progression following greater than or equal to two, but less than or equal to four, prior lines of systemic anti-cancer therapy. A maximum of 60 evaluable patients with NSCLC will receive Compound 1, of which 30 patients will be KRAS-positive and 30 patients KRAS-negative. An evaluable patient will have received at least one dose of Compound 1 and have a valid baseline tumor assessment. Enrollment will continue until the target number of evaluable patients has been enrolled.
Written informed consent must be obtained from all patients before initiating Screening. The Screening period will be up to 42 days in duration (Days −42 to −1). Following completion of all Screening assessments and confirmation of eligibility criteria, patients will receive Compound 1 200 mg three-times-a-day (t.i.d. at 8-hour intervals) on Day 0 for 12 weeks (one treatment cycle) or until documented evidence of disease progression, unacceptable toxicity, non-compliance or withdrawal of consent by the patient, or the investigator decides to discontinue treatment, whichever comes first. Study drug should be taken at 8-hour intervals. The time of study drug administration should be recorded in the patient diary.
The primary efficacy endpoint is progression-free survival (PFS) rate at 12 weeks, which is defined as the proportion of patients alive and progression-free at Week 12. Patients will be progression-free if they have no evidence of progressive disease (defined according to RECIST guidelines, version 1.1) from the start of treatment to Week 12.
The primary endpoint is the PFS rate at 12 weeks, defined as the proportion of patients alive and progression-free at Week 12. […]
Tumor response will be assessed at 6-week intervals during the first treatment cycle using the RECIST criteria version 1.1. […]

[4] = Phase 1 clinical study: pharmacokinetics; assay type: in vivo
Experimental: as §1
Compound 1 will be administered as a single agent in this study at a dose of 600 mg per day (200 mg t.i.d. administered at 8-hour intervals). This dose regimen was chosen based on results from the Phase 1 clinical study involving NSCLC patients refractory to conventional treatment modalities, which reported good tolerability of Compound 1 up to 600 mg/day.

hERG ion channel = hERG ion channel (Homo sapiens, UniProt Q12809); assay: Safety pharmacology: binding activity with hERG ion channel in vitro
Chain of hERG ion channel (Q12809 whole entry): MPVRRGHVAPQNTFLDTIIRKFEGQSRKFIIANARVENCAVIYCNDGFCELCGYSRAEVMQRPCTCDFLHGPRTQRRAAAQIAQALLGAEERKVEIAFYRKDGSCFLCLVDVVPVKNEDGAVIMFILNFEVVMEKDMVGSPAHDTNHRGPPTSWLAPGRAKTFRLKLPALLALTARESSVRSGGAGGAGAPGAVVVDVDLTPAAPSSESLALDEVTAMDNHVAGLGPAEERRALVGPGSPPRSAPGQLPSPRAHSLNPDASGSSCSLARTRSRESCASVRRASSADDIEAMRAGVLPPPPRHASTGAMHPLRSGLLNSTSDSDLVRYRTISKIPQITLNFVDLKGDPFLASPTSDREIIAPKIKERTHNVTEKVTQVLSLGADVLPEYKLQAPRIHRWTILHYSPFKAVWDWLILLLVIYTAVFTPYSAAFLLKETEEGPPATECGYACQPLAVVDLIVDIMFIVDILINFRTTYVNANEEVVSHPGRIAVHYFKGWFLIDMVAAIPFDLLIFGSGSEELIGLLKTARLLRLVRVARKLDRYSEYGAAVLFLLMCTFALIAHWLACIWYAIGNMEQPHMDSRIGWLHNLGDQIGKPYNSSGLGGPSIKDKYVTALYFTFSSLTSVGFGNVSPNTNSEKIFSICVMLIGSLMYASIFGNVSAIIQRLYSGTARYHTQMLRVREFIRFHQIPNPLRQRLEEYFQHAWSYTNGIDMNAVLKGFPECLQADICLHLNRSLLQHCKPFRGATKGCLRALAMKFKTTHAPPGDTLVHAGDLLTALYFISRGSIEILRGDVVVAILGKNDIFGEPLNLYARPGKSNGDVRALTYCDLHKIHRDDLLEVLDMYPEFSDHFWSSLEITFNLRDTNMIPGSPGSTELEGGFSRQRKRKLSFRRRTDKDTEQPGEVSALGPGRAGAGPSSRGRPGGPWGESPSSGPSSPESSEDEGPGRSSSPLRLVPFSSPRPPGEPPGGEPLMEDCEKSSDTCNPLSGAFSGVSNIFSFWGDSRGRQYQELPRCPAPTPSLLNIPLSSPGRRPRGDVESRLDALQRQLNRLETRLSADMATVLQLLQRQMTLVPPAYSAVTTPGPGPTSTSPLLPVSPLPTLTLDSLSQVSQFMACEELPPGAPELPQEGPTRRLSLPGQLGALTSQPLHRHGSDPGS

[5] = Reproductive toxicity in vivo study; settings: up to 80 mg/kg/day, Sprague-Dawley rats
[6] = tested on: different cancer cell lines; assay: Cancer cell death, IC50; assay type: cell-based
From the text: Compound 1 inhibited isoprenyltransferase activity and molecular docking analysis predicted that the isoprene unit and the 4′-hydroxy group of Compound 1 may play important roles in the interaction between Compound 1 and isoprenyltransferase. In addition, Compound 1 increased the expression level of beclin-1 (three-fold), LC3-II/I (P<0.01) and […] formation in lung cancer cells. Compound 1 may therefore inhibit Ras activation through inhibition of isoprenyltransferase, leading to autophagic cell death.

[7] = 7-day toxicity study in dogs; settings: beagle, dog, in vivo, 7-day study, read-out: maximum tolerated dose (MTD)
[8] = Genotoxicity tests (Ames, mammalian cell gene mutation, micronucleus, erythrocyte micronucleus)
[9] = 28-day toxicity study in dogs; assay type: in vivo; settings: 28-day study, dog
Experimental: […]. Two 28-days toxicity studies were conducted to determine no observed adverse effect level (NOAEL) for Sprague-Dawley rats and beagle dogs. […].

[10] = Phase 1 clinical study: safety/tolerability; assay type: in vivo
Experimental: as §1

[11] = Safety pharmacology: cardiovascular effect; assay type: in vivo; settings: beagle dogs
[12] = 7-day toxicity study in rats; settings: Sprague-Dawley, rat, in vivo, 7-day study, read-out: maximum tolerated dose (MTD)
[13] = Safety pharmacology: central nervous system effect; assay type: in vivo; settings: Sprague-Dawley rat
[14] = Safety pharmacology: respiratory system effect; assay type: in vivo; settings: Sprague-Dawley rat
[15] = 28-day toxicity study in rats; assay type: in vivo; settings: rat
Experimental: . Two 28-days toxicity studies were conducted to determine no observed adverse effect level (NOAEL) for Sprague-Dawley rats and beagle dogs. […]

[16] = Toxicokinetic evaluations in rats and dogs; assay type: in vivo; settings: for dose proportionality of exposure: rat and dog
Experimental: Toxicokinetic evaluations were performed on a 7-day dog study (100, 250, 500 mg/kg/day single dose, 500 mg/kg/day 3 days dose) and the two 28-day studies mentioned above (Rat: 10, 30, 100 mg/kg/day single and 28 days dose; Dog: 10, 30, 100 mg/kg/day single and 28 days dose).

[17] = tested on: epidermal growth factor receptor (EGFR); settings: human, in vivo; cited from earlier work

## COC1=C(OC)C(O)C(C/C=C(\C)CC/C=C(\C)CCC=C(C)C)C(C)C1=O (stereo not shown) [Compound 1, 4-hydroxy-2,3-dimethoxy-6-methyl-5-(3,7,11-trimethyldodeca-2,6,10-trienyl)cyclohex-2-enone]
[1]
  tissue with the highest accumulation: lung tissue
NSCLC
  proportion of Per-Protocol patients with stable disease: 100%
[2]
  absorption: fast absorption
  metabolism profile: CYP involved metabolism
  organ distribution: substantial organ distribution especially in the lung, heart, and kidney
[3]; 200 mg t.i.d., overall population
  subjects alive or progression free at 12 week: 4 subjects out of 20
[3]; KRAS mutant patients, 200 mg t.i.d.
  tumor progression free rate or proportion of patients alive at 12 weeks: 3/14
[3]; preliminary phase 2 result
  efficacy for target and non-target lesions at lung related sites: 5/11
[4]; Day 1 and Day 28
  differences in AUC0-24 within the 100-300 mg dose range: no significant differences
  proportionality of AUC0-24 to dose: not linearly proportional
[4]; Day 28
  dose with the highest peak concentration (Cmax) over the 100-300 mg dose range: 200 mg
[4]; human, in vivo
  extent of absorption versus dose: dose proportional
  rate and extent of absorption versus dose: increased in a dose proportional manner
  rate of absorption versus dose: non-dose proportional
hERG ion channel
  binding activity with hERG ion channel: no particular safety concerns
[5]
  reproductive toxicity: no reproductive toxicity
[6]
  IC50: 2.22 to 6.42 µM
[7]
  MTD at 7 days: 100 mg/kg/day
[8]
  genotoxicity: No genotoxicity
[9]
  highest non-severely toxic dose (HNSTD): 30 mg/kg/day
[10]; 200 mg vertigo, 450 mg decreased appetite and encephalitis, unrelated to study drug
  patients with Grade 3 TEAEs: two
[10]; 450 mg dose group, considered unrelated to study drug
  laboratory abnormality recorded as a TEAE: one case of hematuria of Grade 1
[10]; 13 patients treated
  patients with treatment-related TEAEs: 100%
[10]; 50, 100, 200, 300, 450, 600 mg, Intent-to-Treat Population
  Dose Limiting Toxicities (DLTs): No Dose Limiting Toxicities
[10]; 50-600 mg dose levels
  toxicity profile: low toxicity profile
[10]; 50-600 mg dose levels, daily for 4 weeks
  safety and tolerability: generally safe and well tolerated
[10]; Follow-Up Visit
  clinically significant changes in vital sign, ECG and physical examination parameters: None of the patients
[10]; Grade 1
  diarrhea, patients: 69.2%
  gastrointestinal disorders, patients: 53.8%
  nausea, patients: 46.2%
  vomiting, patients: 46.2%
[10]; Grade 2
  diarrhea, patients: 7.7%
  gastrointestinal disorders, patients: 38.5%
  nausea, patients: 7.7%
  vomiting, patients: 23.1%
[10]; NCI-CTCAE Version 4.03
  Grade 4 treatment-emergent adverse events (TEAEs): No Grade 4
[10]; all grades
  diarrhea, patients: 76.9%
  gastrointestinal disorders, patients: 92.3%
  nausea, patients: 53.8%
  vomiting, patients: 69.2%
[10]; all patients at all time points except two patients in the 450 mg group (scores 4 and 2)
  ECOG score: 1
[10]; two each at 450 and 600 mg, none related to study drug
  patients reporting serious adverse events (SAEs): four
[11]
  cardiovascular effect: no particular safety concerns
[12]
  MTD at 7 days: 100 mg/kg/day
[13]
  central nervous system effect: no particular safety concerns
[14]
  respiratory system effect: no particular safety concerns
[15]; 28-day study, 100 mg/kg/day
  toxicity of the high dose: not severely toxic
[15]; Sprague-Dawley, in vivo
  NOAEL at 28 days: 30 mg/kg/day
[16]; Sprague-Dawley (rat), beagle (dog), rat, dog, in vivo, rats and dogs, 7-day and 28-day studies, read-out: peak time (Tmax)
  Tmax: 0.25 to 6 h
[16]; after 1 day of treatment
  dose proportionality of exposure: trend of dose proportionality
[16]; after 28 days of treatment
  dose proportionality of exposure: inconsistent phenomena

## C#Cc1cccc(Nc2ncnc3cc(OCCOC)c(OCCOC)cc23)c1 [erlotinib]
[17]
  response rate: 60%

From US11786485B2, “Methods and compositions for treating advanced stage non-small cell lung cancer” (Golden Biotechnology Corporation, priority 2016, dated 2023)
